The test system of series [1] is type I collagen content of hepatic stellate cells. The experiment in a line: Type I collagen content of hepatic stellate cells (ELISA kit). In kind it is cell-based, rats. Particulars: 50 μmol/l, HSC supernatant; mean ± SD. As for the experimental part:
(§1) Materials and reagents: ELISA kit for rats type I collagen, trypsin, fetal bovine serum, etc.
(§2) Methods: Revived hepatic stellate cell (HSC) seeds were placed in a 100 ml plastic incubation flask and incubated in a CO2 incubator (inside 5% CO2, 95% humidity). The medium was discarded when the cells grew into a single layer. Digestion solution (5% trypsin) was added. The digestion solution was removed and centrifuged at 2200 rpm for 7 minutes. The supernatant was discarded, washed and centrifuged with DMEM incubation solution. The cells were suspended in a DMEM solution containing 20% fetal bovine serum, and the cell numbers were counted. The cell suspension was diluted with a DMEM solution and seeded in 96 well culture plate, each well having 100 μl diluted suspension. After 48 hours, the solution was removed and the cells were washed with a DMEM incubation solution containing 10% bovine serum to synchronize the cells at stable phrase. The cells were treated with testing compositions diluted in physiological saline (50 μmol/l). Each treatment tested 6 wells and repeated for 3 times. After 48 hours, incubation was terminated. […] The HSC absorbance at wavelength 570 nm was measured by microplate reader. […] The supernatant was obtained and the type I collagen content was measured according to the instructions in the type I collagen kit.

For series [2], the system named is quails of fat arteriosclerosis model. Briefly: Anti-atherosclerosis effect, aortic atherosclerosis degree of quails (pathological examination). More on the design: Total atherosclerosis score: scale not given here. In kind it is in vivo. An excerpt: (§3) Testing composition preparation: ferulic acid and oxymatrine were mixed in a mole ratio 1:1 to prepare a solution.
(§4) Methods: According to the method described in reference (Liu et al., 2005. Chinese journal of arteriosclerosis, 13(3): 305-308).
(§5) Test method: 140 male quails were selected and randomly separated into 7 groups: normal control group (healthy quails), modeling control group (fat arteriosclerosis model which is set up by the methods described in reference), positive control group (fat arteriosclerosis model is treated by luofatading 10 mg/kg), ferulic acid control group (tested with ferulic acid 40 mg/kg), large/medium/small dosage testing groups ([…], of testing compositions). Except the normal control group, all the other 6 groups were fat arteriosclerosis models.
(§6) The quails were daily intragastric administrated with testing compositions or controls once per day for consecutive four weeks. The fourth weekend after administration, the content of serum lipid from 10 quails of each group was detected. In the end, pathological examination was conducted on the surviving quails.

The subject of series [3] is mice. The experiment in a line: Analgesic effect, acetic acid writhing test in mice. In kind it is in vivo. Particulars: intragastric 20 mg/kg for 3 days, 0.6% acetic acid ip, writhing within 15 minutes. The procedure: Method: Healthy mice were selected, each group containing 10 mice. The mice were intragastric administrated with 20 mg/kg testing compositions or control compositions for consecutive 3 days. 30 minutes after the last administration, the mice were intra-peritoneally (ip) injected with 10 ml/kg of 0.6% acetic acid. The writhing numbers of the mice within 15 minutes were recorded. The analgesic percentage was calculated.
Analgesic percentage(%)=(writhing numbers of blank control group−writhing numbers of testing group)/writhing numbers of blank control group×100%
On the technique in general: Writhing tests count abdominal constrictions after an irritant is injected.

The test system of series [4] is mice. Briefly: Mice gastrointestinal motility, carbon powder propulsion. In kind it is in vivo. The conditions noted are these: 3 days. From the text: Materials and reagents: oxymatrine injection (Xinhua Inc., batch No.: 0306003), neostigmine methylsulfate injection (Tianfu Inc., batch No.: 0404131), atropine sulfate injection (Tianfu Inc., batch No.: 0409271), morphine sulfate controlled-release tablets (Mengdi Inc., batach No.: 04082312).
Animals and feeding environment: healthy SPF grade Kunming mice, half male, weight 18-22 g, provided by Lvye Inc., certificate No.: SYXK(LU)20030020. Every 10 mice were placed in one cage. Mice feeding was provided by Shandong experimental animal center. Experimental mice fed in barrier system with filtered air, at the room temperature of 18-22° C. and humidity at 50-60%, with 12 hours light radiation per day.
Methods: The mice were intragastric administrated with testing compositions or controls for consecutive 3 days. Before the last administration, the mice were stopped feeding and supplied with water for 16 hours. 30 minutes after the last administration, the mice were intragastric administrated with 0.2 ml 5% activated carbon suspension. 20 minutes later, the mice were sacrificed by cervical dislocation. The abdominal cavity was opened and bowel was collected from pylorus to ileocecal. The bowel was placed on a tray and straightened. The total length of small intestine was measured, as well as the advanced distance of carbon powder in the intestine from pylorus. The percentage of carbon powder propulsion was calculated by the following formula: percentage of carbon powder propulsion=advanced distance of carbon powder/total length of small intestine×100%

The test system of the next series is hepatic stellate cells. The experiment in a line: Proliferation of hepatic stellate cells (MTT absorbance). In kind it is cell-based, rats. The conditions noted are these: 50 μmol/l, 48 hours, 570 nm, mean ± SD. The procedure:
as §1, §2

Series [5] relates to quails of fat arteriosclerosis model. Briefly: Anti-atherosclerosis effect, serum TC and TG in quails. In kind it is in vivo. Particulars: quail serum, four weeks.
Excerpt: as §3, §4, §5, §6
Method to detect the content of serum lipid: at the end of the 4th week after administration, feeding was stopped for 12 hours. 2 ml blood was collected from jugular vein. The serum was separated. The contents of serum cholesterol (TC) and triglyceride (TG) were measured according to an enzymatic method.

In series [6] the test system is mice. The experiment in a line: Anti-inflammatory effect, xylene ear swelling in mice. Particulars: xylene on right ear, ear coated with 1% composition, 30 minutes later. In kind it is in vivo. The procedure: Healthy mice were selected, each group containing 10 mice. After weighing and marking, the right ear of the mice was contacted with xylene cotton ball for 5 seconds, leaving the left ear as control. 10 minutes after proinflammatory treatment, the right ear was coated with testing compositions (1%), control ingredients (individual ferulic acid or oxymatrine) or blank control (physiological saline). 30 minutes later, the mice was sacrificed by cervical dislocation. The same volume of tissues was collected from left ear (control) and fight ear (treated with xylene) by hole puncher (diameter: 6 mm), and weighed. The ear swelling percentage was calculated. Ear swelling percentage (%)=(Weight of right ear−Weight of left ear)/Weight of left ear×100%

The next series has as its system patients with rash. Briefly: Effect on rash in patients. In kind it is in vivo. The conditions noted are these: 10 patients, 1% applied on rash area, after 10 minutes. The procedure: Patient selection: 18-25 years old of either gender with rash at both body sides. Each composition was tested on 10 patients. Test was carried out with single-blind and self control. 1% composition or control was applied on rash area at left side of the body, and physiological saline was applied on rash area at the right side. After 10 minutes, the effects were evaluated.
Effect evaluation: Obviously effective if both rash and itching feeling disappear; effective if parts of rash and itching feeling disappear; invalid if both rash and itching feeling keep unchanged.

Series [7] concerns mice. Briefly: Acute toxicity in mice. Particulars: 10 mice, 72 hours. In kind it is in vivo. The procedure:
Methods: Healthy mice were selected, each group containing 10 mice. The mice were intragastric administrated with testing compositions or controls once; and observed for 72 hours. The deaths were recorded.

Series [8] has as its target T1, blood acetylcholinesterase (Rattus norvegicus, UniProt P37136).
T1 construct: 0.05 ml each diluted composition was pipetted into 0.5 ml diluted rats blood; from tissue; host or cells: rat whole blood, anticoagulated, diluted 10 times with physiological saline
T1 sequence (P37136 32-614): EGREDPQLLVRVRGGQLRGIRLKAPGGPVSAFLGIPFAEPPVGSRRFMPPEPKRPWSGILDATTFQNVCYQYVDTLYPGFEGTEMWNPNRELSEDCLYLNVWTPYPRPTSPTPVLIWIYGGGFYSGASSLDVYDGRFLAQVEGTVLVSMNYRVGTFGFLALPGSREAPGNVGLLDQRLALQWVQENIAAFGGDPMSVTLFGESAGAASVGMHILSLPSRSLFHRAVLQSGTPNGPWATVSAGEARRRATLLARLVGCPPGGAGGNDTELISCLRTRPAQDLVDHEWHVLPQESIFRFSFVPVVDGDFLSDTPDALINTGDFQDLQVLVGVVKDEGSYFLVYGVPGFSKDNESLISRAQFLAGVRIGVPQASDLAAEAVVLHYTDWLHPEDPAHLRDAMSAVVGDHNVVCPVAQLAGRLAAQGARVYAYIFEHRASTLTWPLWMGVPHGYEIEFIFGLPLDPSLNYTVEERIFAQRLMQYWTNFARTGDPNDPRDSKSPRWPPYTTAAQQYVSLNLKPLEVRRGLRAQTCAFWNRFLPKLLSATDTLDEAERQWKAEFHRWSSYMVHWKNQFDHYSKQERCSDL
The experiment in a line: Anticholinesterase effect on rat blood acetylcholinesterase. The class given is biochemical, rats. The procedure: Methods: 5 ml blood was collected from healthy rats, stored in tubes containing anticoagulants and diluted 10 times with physiological saline (ready for use). The testing compositions were diluted with physiological saline to 0, 5, 10, 20, 40, 80, 160, 320, 640 mg/l concentrations, respectively. 0.05 ml each diluted composition was pipetted into 0.5 ml diluted rats blood, mixed thoroughly and incubated at 37° C. for 1 hour. The activity of blood acetylcholinesterase was measured according to the acetylcholinesterase kit. The half inhibitory concentration (IC50) was calculated.

Series [9] deals with rheumatoid arthritis patients. The conditions noted are these: 30 patients, 200 mg tablets daily, 5 days. The procedure:
Testing composition preparation: The gel containing ferulic acid and matrine (mole ratio 1:1) were prepared according to a pharmaceutical method.
Methods: 30 pairs of rheumatoid arthritis patients; 30 patients participating in the control group with daily administration of 200 mg naproxen tablets; 30 patients participating in the testing group with daily application on the affected parts of the testing gel containing ferulic acid and matrine. Both groups were administered for consecutive 5 days.
Effect observations: obviously effective if both swelling and aches disappear; effective if aches disappear with limited swelling; invalid if both swelling and aches exist.

Like-named read-outs stand apart in the source and are kept apart here.

Turning to `COc1cc(/C=C\C(=O)O)ccc1O` [Ferulic acid, 4-hydroxy-3-methoxy cinnamic acid], the “Type I collagen content” value in [1] was 64.36 ± 11.22 µg/L. In [2] (40 mg/kg), the “Numbers of quails in aortic atherosclerosis degree 0” value is reported as 1, the “Numbers of quails in aortic atherosclerosis degree 1” value was found to be 4, the “Numbers of quails in aortic atherosclerosis degree 2” value was determined as 6 and the “Numbers of quails in aortic atherosclerosis degree 3” value is on record as 3. Besides, in series [2] (40 mg/kg), the “Numbers of quails in aortic atherosclerosis degree 4” value is 0 and the Total atherosclerosis score amounted to 25. This molecule yielded an Analgesic percentage in the series with mice [3] of 18.30%. In the series on mice [4] (intragastric 20 mg/kg), the “Percentage of carbon powder propulsion (mean ± SD, %)” value (“Percentage … (mean ± SD, %)” below) amounted to 54.33 ± 10.22%. In the series on hepatic stellate cells, this molecule registered an Average absorbance of 0.42 ± 0.24. In series [5] (40 mg/kg intragastric daily), this molecule gave a TC of 16.88 ± 6.31 mmol/L and a TG of 3.52 ± 0.73 mmol/L. Moreover, in the series on mice [6], the Ear swelling percentage turned out to be 164.6%. Further, in the series with patients with rash, the “Effective (number of patients)” value was determined as 3 and the “Invalid (number of patients)” value is recorded as 7. The Death cases in the series on mice [7] (single intragastric 1000 mg/kg) turned out to be 0.
For the molecule `CC[C@H](C)C(=O)O[C@H]1C[C@@H](C)C=C2C=C[C@H](C)[C@H](CC[C@@H]3C[C@@H](O)CC(=O)O3)[C@H]21` [Luofatading], in [2] (10 mg/kg), the “Numbers of quails in aortic atherosclerosis degree 0” value stood at 0, the “Numbers of quails in aortic atherosclerosis degree 1” value worked out at 6, the “Numbers of quails in aortic atherosclerosis degree 2” value was 8 and the “Numbers of quails in aortic atherosclerosis degree 3” value turned out to be 2. Moreover, in series [2] (10 mg/kg), the “Numbers of quails in aortic atherosclerosis degree 4” value worked out at 0 and the Total atherosclerosis score came out at 28. In series [5] (10 mg/kg intragastric daily), this molecule displayed a TC of 10.19 ± 2.07 mmol/L and a TG of 1.68 ± 0.36 mmol/L.
In the series with mice [7] (single intragastric 500 mg/kg), `O=C1CCC[C@@H]2[C@H]3CCCN4CCC[C@@H](CN12)[C@@H]34` [Matrine, matrine] displayed a Death cases of 10.
As a reminder, the IC50 is the concentration at which inhibition is half-maximal. For `CN(C)C(=O)Oc1cccc([N+](C)(C)C)c1` [Neostigmine, neostigmine], the “Percentage … (mean ± SD, %)” value with mice [4] (intragastric 4 mg/kg) is 68.55 ± 4.80 %. In addition, the 50% inhibitory concentration (IC50) in series [8] (diluted rat blood, 37° C., 1 hour, read-out: IC50 (converted)) is 1640 µM.
Regarding `O=C1CCC[C@@H]2[C@H]3CCC[N+]4([O-])CCC[C@@H](CN12)[C@@H]34` (stereo partly drawn) [Oxymatrine, oxymatrine], in [1], the “Type I collagen content” value amounted to 63.42 ± 9.76 µg/L. For the same molecule, the Analgesic percentage in the series with mice [3] came to 29.98%. Besides, the “Percentage … (mean ± SD, %)” value in the series with mice [4] (intragastric 10 mg/kg) turned out to be 58.85 ± 13.22%; with mice [4] (intragastric 20 mg/kg), 67.49 ± 11.68 %. For the same molecule, the Average absorbance with hepatic stellate cells was found to be 0.39 ± 0.17. Further, in the series with mice [6], the Ear swelling percentage stood at 133.4%. In addition, the “Effective (number of patients)” value in the series on patients with rash amounted to 10. The 50% inhibitory concentration (IC50) in series [8] is 2780 µM.
In the series on mice [7] (single intragastric 500 mg/kg), `O=C1C=CC[C@@H]2[C@H]3CCCN4CCC[C@@H](CN12)[C@@H]34` [Sophocarpine, sophocarpine] had a Death cases of 10.
For the molecule `COc1ccc2cc([C@H](C)C(=O)O)ccc2c1` [naproxen], in [9], the Effective cases is 11 cases, the Obviously effective cases came out at 12 cases and the Total effective percentage is on record as 76.7%.

The values above are taken from patent US8785471B2, “Pharmaceutical composition containing ferulic acid and matrine compounds, the preparation and the use thereof” (Qingdao Qiyuan Bio-Technologies Co., Ltd., priority 2008, dated 2014).
